Data: paper PMC11642940, “A New Demand for Improved Selectivity and Potency of Cyanine Dyes as Antiproliferative Agents Against Colorectal Cancer Cells” (Molecules, 2024)
Where two headings read alike, the source gives them in different places.

What was measured:
[1] = system: Caco-2 cells; test: Apoptosis (sub-G1 events) by PI staining and flow cytometry; type: cell-based, human; details: 72 h
Protocol: Given that apoptosis is a common programmed mechanism regulating cell death, characterized by DNA fragmentation and an increase in sub-G1 events, we employed the method described by Riccardi and Nicolleti to assess potential apoptosis induction using flow cytometry. Cyanine dyes 5 and 10 were tested at concentrations of 1 µM and 10 µM, respectively. As positive controls for apoptosis, 600 mM sorbitol and 10 µM 5-FU were used, with untreated cells serving as the negative control. […] In contrast, dye 10 induced a slight increase in apoptosis, reaching 1.7%. […] Apoptotic bodies were more evident in cells treated with dye 5 compared to dye 10, which is further supported by the slightly higher apoptosis induction in this assay.
Apoptosis (sub-G1 events) and cell cycle distribution were evaluated by propidium iodide (PI) staining and flow cytometry, as described by Riccardi and Nicolleti. […] Untreated cells were used as the negative control, and sorbitol and 5-FU were used as positive controls. After incubation, the supernatant was collected in a centrifuge tube, cells were washed with PBS, trypsinized and wells were once again washed with PBS. This cell suspension was maintained on ice, centrifugated at 300 g for 5 min, and then the pellet was resuspended in 0.5 mL of PBS. Cells were fixed by adding 4.5 mL of 70% ethanol cooled at −20 °C on ice and were stored at −20 °C for a period ranging from one to a few days. On the day of flow cytometry analysis, PBS was added to the fixed cell tubes, followed by centrifugation and removal of the supernatant. The pellet was resuspended in 0.5 mL of PBS and 0.5 mL of DNA extraction solution (192 mL of 0.2 M sodium phosphate and 8 mL of […], pH 7.8). After incubation for 5 min, the cells were once again centrifuged, the supernatant was removed, and the pellet was resuspended in 0.3 mL of staining solution (20 µg/mL of PI and 0.2 mg/mL of DNase-free RNase in PBS). Using a FACSCalibur flow cytometer (Becton Dickinson, Franklin Lakes, NJ, USA) with a 488 nm laser line, a minimum of 20,000 events were acquired and recorded using the BD CellQuestTM Pro 4.0.2 software, and analyzed with FlowJo 10.5.3 software. To exclude debris and necrotic cells, events with a lower diameter (forward scatter; FCS) and PI fluorescence (FL3) than the hypodiploid apoptotic cells were eliminated (Figures S1 and S2). Two independent experiments were performed. A Student’s t-test was performed to evaluate the statistical significance of the results.

[2] = system: normal human dermal fibroblasts (NHDF); test: MTT cell viability assay, NHDF; type: cell-based; details: Homo sapiens; NHDF, 72 h incubation, MTT, absence of light; read-out: IC50 NHDF
Protocol: (§4) The cell lines used in this study (Caco-2, MCF-7, PC-3, and NHDF) were obtained from the American Type Culture Collection (ATCC, Manassas, VA, USA) and cultured in 75 cm^2 culture flasks at 37 °C in a humidified atmosphere with 5% CO2 in a LEEC Culture Safe Precision CO2 Incubator. PC-3 cells were grown in Roswell Park Memorial Institute (RPMI) medium supplemented with 10% of inactivated Fetal Bovine Serum (FBS) and 1% of an antibiotic mixture (Sp; 10,000 U/mL of penicillin G and 100 mg/mL of streptomycin). MCF-7 and Caco-2 cell lines were both cultured using Dulbecco’s Modified Eagle Medium (DMEM). However, the medium for MCF-7 cells was complemented with 10% of inactivated FBS and 1% of antibiotic/antimycotic mixture (Ab; 10,000 U/mL of penicillin G, 100 mg/mL of streptomycin and 25 µg/mL of amphotericin B), and the medium for Caco-2 cells was supplemented with 20% of inactivated FBS and 1% of Sp. Finally, RPMI medium supplemented with 10% FBS, 2 mM of L-glutamine, 10 mM of 4-(2-hydroxyethyl)-1-piperazineethanesulfonic acid (HEPES), 1 mM of sodium pyruvate, and 1% of Ab was used to culture NHDF cells. The culture media were renewed every two to three days until near confluence was achieved. Then, cells were detached using a solution of 0.125 g/L of trypsin and 0.02 g/L of ethylenediaminetetracetic acid (EDTA), counted by the trypan blue method, resuspended, and adequately seeded to continue the culture in 75 cm^2 flasks or for the experiments described below. All manipulations were performed in a Labculture Class II A2 Biological Safety Cabinet.

[3] = MTT cell viability assay, NHDF; type: cell-based, human; details: human, normal human dermal fibroblasts (NHDF); 10 µM, 72 h, mean ± SD; read-out: cell viability percentage in relation to control, NHDF
Protocol: as §4

[4] = system: PC-3 prostate adenocarcinoma cells; test: MTT cell viability assay, PC-3; details: 72 h; for IC50 / viability at 10 µM: Homo sapiens; for viability at 10 µM: read-out: cell viability percentage in relation to control, PC-3; for SI PC-3 (selectivity index versus NHDF): PC-3 versus NHDF
Protocol: (§1) To evaluate the anticancer potential of monomethine cyanine dyes 1–12, a cell proliferation study was conducted using the 3-(4,5-dimethylthiazol-2-yl)-2,5-diphenyltetrazolium bromide (MTT) assay. For this preliminary evaluation, a concentration of 10 µM for each dye was tested, with the well-established chemotherapy agent 5-fluorouracil (5-FU) serving as a positive control. The assay included normal human dermal fibroblasts (NHDF) as non-tumor cells, alongside tumor cell lines from colorectal (Caco-2), prostate (PC-3), and breast (MCF-7) adenocarcinomas.
(§2) The cell lines used in this study (Caco-2, MCF-7, PC-3, and NHDF) were obtained from the American Type Culture Collection (ATCC, Manassas, VA, USA) and cultured in 75 cm^2 culture flasks at 37 °C in a humidified atmosphere with 5% CO2 in a LEEC Culture Safe Precision CO2 Incubator. PC-3 cells were grown in Roswell Park Memorial Institute (RPMI) medium supplemented with 10% of inactivated Fetal Bovine Serum (FBS) and 1% of an antibiotic mixture (Sp; 10,000 U/mL of penicillin G and […] of streptomycin). MCF-7 and Caco-2 cell lines were both cultured using Dulbecco’s Modified Eagle Medium (DMEM). However, the medium for MCF-7 cells was complemented with 10% of inactivated FBS and 1% of antibiotic/antimycotic mixture (Ab; 10,000 U/mL of penicillin G, […] of streptomycin and 25 µg/mL of amphotericin B), and the medium for Caco-2 cells was supplemented with 20% of inactivated FBS and 1% of Sp. Finally, RPMI medium supplemented with 10% FBS, 2 mM of L-glutamine, 10 mM of 4-(2-hydroxyethyl)-1-piperazineethanesulfonic acid (HEPES), 1 mM of sodium pyruvate, and 1% of Ab was used to culture NHDF cells. The culture media were renewed every two to three days until near confluence was achieved. Then, cells were detached using a solution of 0.125 g/L of trypsin and 0.02 g/L of ethylenediaminetetracetic acid (EDTA), counted by the trypan blue method, resuspended, and adequately seeded to continue the culture in 75 cm^2 flasks or for the experiments described below. All manipulations were performed in a Labculture Class II A2 Biological Safety Cabinet.
(§3) After trypsinization, cells were seeded in 96-well culture plates (100 µL; 2 × 10^4 cells/mL), and after 48 h (for adherence), they were incubated with the compounds under study in the absence of light for a duration of 72 h. Then, the medium was removed, and fresh incomplete culture medium (without FBS and Ab or Sp) and MTT solution [5 mg/mL in phosphate buffer saline (PBS)] were added to each well, followed by 4 h of incubation. After this, the medium containing MTT was removed and DMSO was added to dissolve formazan crystals. The absorbance of each well at 570 nm was determined using a microplate spectrophotometer Bio-Rad (Hercules, CA, USA) xMark. Untreated cells were considered the negative control, and 5-FU, a clinically used drug, was considered the positive control. For data analysis, the relative cell proliferation relative to the negative control cells was calculated. For each cell viability study, at least two independent assays in quadruplicate were performed. Increasing concentrations of the compounds between 0.001 and 100 μM were used to determine the IC50 values.

[5] = system: Caco-2 colorectal adenocarcinoma cells; test: MTT cell viability assay, Caco-2; details: for SI Caco-2 (selectivity index, cancer versus non-cancer cell line NHDF): Caco-2 versus NHDF, 72 h; for IC50 / viability at 10 µM: Homo sapiens, Caco-2, 72 h; for IC50: read-out: IC50 Caco-2; for viability at 10 µM: read-out: cell viability percentage in relation to control, Caco-2
Protocol: as §1, §2, §3

[6] = MTT cell viability assay, Caco-2; details: human
Protocol: as §1, §2, §3

[7] = read-out: IC50 PC-3, PC-3, 72 h incubation, MTT
[8] = Caco-2, SI Caco-2 (selectivity index, cancer versus non-cancer cell line NHDF), Caco-2 versus NHDF, 72 h

CN1C(=Cc2oc3ccccc3[n+]2C)C=Cc2ccccc21.Cc1ccc(S(=O)(=O)[O-])cc1 [Dye 5, 3-Methyl-2-((1-methylquinolin-2(1H)-ylidene)methyl)benzo[d]oxazol-3-ium 4-methylbenzenesulfonate]
apoptosis (sub-G1 events), % of cells ([1]; Caco-2, 1 µM): approximately 2.3% | IC50 [2]: 2.79 µM | viability at 72 h, 10 µM [3]: 15.4 ± 1.82% | IC50 [4, 7]: 1.43 µM | viability at 10 µM [4]: 3.47 ± 0.95% | SI PC-3 (selectivity index versus NHDF) [4]: 1.9 | SI Caco-2 (selectivity index, cancer versus non-cancer cell line NHDF) [5]: 278.3 | IC50 [5]: 0.01 µM | viability at 10 µM [5]: 5.05 ± 0.19% | selectivity ratio at 72 h [6, 8]: 278

CCN1C(=Cc2sc3cc([N+](=O)[O-])ccc3[n+]2CC)Sc2ccccc21.Cc1ccc(S(=O)(=O)[O-])cc1 [Dye 10, 3-Ethyl-2-((3-ethylbenzo[d]thiazol-2(3H)-ylidene)methyl)-6-nitrobenzo[d]thiazol-3-ium 4-methylbenzenesulfonate]
apoptosis (sub-G1 events), % of cells ([1]; Caco-2, 10 µM): 1.7% | IC50 [2]: 22.4 µM | viability at 72 h, 10 µM [3]: 34.3 ± 1.99% | IC50 [4, 7]: 5.93 µM | viability at 10 µM [4]: 14.4 ± 1.6% | SI PC-3 (selectivity index versus NHDF) [4]: 3.8 | SI Caco-2 (selectivity index, cancer versus non-cancer cell line NHDF) [5]: 151.4 | IC50 [5]: 0.14 µM | viability at 10 µM [5]: 18.6 ± 0.65% | selectivity ratio at 72 h [6, 8]: 151

O=c1[nH]cc(F)c(=O)[nH]1 [5-FU, 5-fluorouracil, reference compound]
apoptosis (sub-G1 events), % of cells ([1]; Caco-2, 10 µM): 12.8% | IC50 [2]: 4.53 µM | viability at 72 h, 10 µM [3]: 10.5 ± 0.74% | IC50 ([4]; read-out: IC50 PC-3): 2.43 µM | viability at 10 µM [4]: 20.5 ± 2.3% | SI PC-3 (selectivity index versus NHDF) [4]: 1.9 | IC50 [5]: 1.11 µM | viability at 10 µM [5]: 30.1 ± 1.24% | selectivity ratio at 72 h ([6]; Caco-2): 4.1
